In patent US6933304B2, “Heteroarylalkanoic acids as integrin receptor antagonists” (Pharmacia Corporation, priority 2000, dated 2005):

How the values were obtained:
[1] = biological target: T1, αVβ6 (HT-29 human colon carcinoma cells) (Homo sapiens, UniProt P06756+P18564); assay: HT-29 cell adhesion assay (adhesion to immobilized LAP); type: cell-based; details: selectivity ratio: IC50 αVβ6 (HT-29) over IC50 β3
T1 construct: endogenous in cells; host or cells: HT-29 human colon carcinoma cells
Description: To evaluate compound potency for membrane-bound αVβ6 an additional cell-based adhesion assay was established using the HT-29 human colon carcinoma cell line. High surface expression of αVβ6 on HT-29 cells was confirmed by flow cytometry. Conditions were established in which cell adhesion to immobilized human latency associated peptide (LAP) was mediated by the αVβ6, as determined by a panel of integrin-specific, neutralizing monoclonal antibodies. Briefly, cells were incubated with inhibitor in the presence of 200 uM Mn^2+, allowed to adhere to immobilized LAP, washed, and adherent cells are detected by quantifying endogenous alkaline phosphatase using para-nitrophenyl phosphate. An 8-point dose-response curve using either 10-fold or 3-fold dilutions of compound was evaluated by fitting a four-parameter logistic, nonlinear model (using SAS). The compounds evaluated were relatively ineffective at inhibition of αVβ6-mediated cell adhesion. The selective antagonism of the αVβ3 integrin is viewed as desirable in this class of compounds, as αVβ6 may also play a role in normal physiological processes of tissue repair and cellular turnover that routinely occur in the skin and pulmonary tissues.

[2] = biological target: T2, Human fibrinogen receptor (IIb/IIIa) (Homo sapiens, UniProt P05106+P08514); assay: Purified IIb/IIIa receptor assay (solid phase receptor assay, SPRA); type: binding; details: selectivity ratio: IC50 αIIbβ3 (solid phase receptor assay) over IC50 β3
T2 construct: Human fibrinogen receptor (IIb/IIIa) was purified from outdated platelets; from tissue; host or cells: outdated human platelets
From the text: Human fibrinogen receptor (IIb/IIIa) was purified from outdated platelets. (Pytela, R., Pierschbacher, M. D., Argraves, S., Suzuki, S., and Rouslahti, E. “Arginine-Glycine-Aspartic acid adhesion receptors”, Methods in Enzymology 144(1987):475-489.) Human vitronectin was purified from fresh frozen plasma as described in Yatohgo, T., Izumi, M., Kashiwagi, H., and Hayashi, M., “Novel purification of vitronectin from human plasma by heparin affinity chromatography,” Cell Structure and Function 13(1988):281-292. Biotinylated human vitronectin was prepared by coupling NHS-biotin from Pierce Chemical Company (Rockford, IL) to purified vitronectin as previously described. (Charo, I. F., Nannizzi, L., Phillips, D. R., Hsu, M. A., Scarborough, R. M., “Inhibition of fibrinogen binding to GP IIb/IIIa by a GP IIIa peptide”, J. Biol. Chem. 266(3)(1991): 1415-1421.) Assay buffer, OPD substrate tablets, and RIA grade BSA were obtained from Sigma (St. Louis, Mo.). Anti-biotin antibody was obtained from Sigma (St. Louis, Mo.). Nalge Nunc-Immuno microtiter plates were obtained from (Rochester, N.Y.). ADP reagent was obtained from Sigma (St. Louis, Mo.).
This assay is essentially the same reported in Niiya, K., Hodson, E., Bader, R., Byers-Ward, V. Koziol, J. A., Plow, E. F. and Ruggeri, Z. M., “Increased surface expression of the membrane glycoprotein IIb/IIIa complex induced by platelet activation: Relationships to the binding of fibrinogen and platelet aggregation”, Blood 70(1987):475-483. The purified human fibrinogen receptor (IIb/IIIa) was diluted from stock solutions to 1.0 μg/mL in Tris-buffered saline containing 1.0 mM Ca^++, Mg^++, and Mn^++, pH 7.4 (TBS^+++). The diluted receptor was immediately transferred to Nalge Nunc-Immuno microtiter plates at 100 μL/well (100 ng receptor/well). The plates were sealed and incubated overnight at 4° C. to allow the receptors to bind to the wells. All remaining steps were at room temperature. The assay plates were emptied and 200 μL of 1% RIA grade BSA in TBS^+++ (TBS^+++/BSA) were added to block exposed plastic surfaces. Following a 2 hour incubation, the assay plates were washed with TBS^+++ using a 96 well plate washer. Logarithmic serial dilution of the test compound and controls were made starting at a stock concentration of […] and using 2 nM biotinylated vitronectin in TBS^+++/BSA as the diluent. This premixing of labeled ligand with test (or control) ligand, and subsequent transfer of 50 μL aliquots to the assay plate was carried out with a CETUS Propette robot; the final concentration of the labeled ligand was 1 nM and the highest concentration of test compound was 1.0×10^−4 M. The competition occurred for two hours after which all wells were washed with a plate washer as before. Affinity purified horseradish peroxidase labeled goat anti-biotin antibody was diluted 1:2000 in TBS^+++/BSA and 125 μL were added to each well. After 45 minutes, the plates were washed and incubated with […] substrate in 100 mM/L citrate buffer, pH 5.0. The plate was read with a microtiter plate reader at a wavelength of 450 nm and when the maximum-binding control wells reached an absorbance of about 1.0, the final A450 were recorded for analysis. The data were analyzed using a macro written for use with the EXCELJ spreadsheet program. The mean, standard deviation, and %CV were determined for duplicate concentrations. The mean A450 values were normalized to the mean of four maximum-binding controls (no competitor added)(B-MAX). The normalized values were subjected to a four parameter curve fit algorithm, [Robard et al., Int.

[3] = biological target: T3, αVβ3 integrin (293-β3 cells) (Homo sapiens, UniProt P05106+P06756); assay: 293-β3 cell adhesion assay (adhesion to immobilized vitronectin); type: cell-based; details: 200 uM Mn2+, read-out: 293-β3 (IC50 <10 μM)
T3 construct: expressed in transfected cells; host or cells: 293 human embryonic kidney cells (293-β3)
From the text: While the β3 subunit of αVβ3 is only known to complex with αV or αIIb, the αV subunit complexes with multiple β subunits. The three αV integrins most homologous with αVβ3 are αVβ1, αVβ5 and αVβ6, with 43%, 56% and 47% amino acid identity in the β subunits, respectively. To evaluate the selectivity of compounds between the integrins αVβ3 and αVβ6, cell-based assays were established using the 293 human embryonic kidney cell line. 293 cells express αVβ1, but little to no detectable αVβ3 or αVβ6. cDNAs for β3 and β6 were transfected separately into 293 cells to generate 293-β3 and 293-β6 cells, respectively. High surface expression of αVβ3 and αVβ6 was confirmed by flow cytometry. Conditions were established for each cell line in which cell adhesion to immobilized human vitronectin was mediated by the appropriate integrin, as determined by a panel of integrin-specific, neutralizing monoclonal antibodies. Briefly, cells were incubated with inhibitor in the presence of 200 uM Mn^2+, allowed to adhere to immobilized vitronectin, washed, and adherent cells are detected endogenous alkaline phosphatase and para-nitrophenyl phosphate. An 8-point dose-response curve using either 10-fold or 3-fold dilutions of compound was evaluated by fitting a four-parameter logistic, nonlinear model (using SAS).

T2 sequence (P08514 32-887 limits assumed): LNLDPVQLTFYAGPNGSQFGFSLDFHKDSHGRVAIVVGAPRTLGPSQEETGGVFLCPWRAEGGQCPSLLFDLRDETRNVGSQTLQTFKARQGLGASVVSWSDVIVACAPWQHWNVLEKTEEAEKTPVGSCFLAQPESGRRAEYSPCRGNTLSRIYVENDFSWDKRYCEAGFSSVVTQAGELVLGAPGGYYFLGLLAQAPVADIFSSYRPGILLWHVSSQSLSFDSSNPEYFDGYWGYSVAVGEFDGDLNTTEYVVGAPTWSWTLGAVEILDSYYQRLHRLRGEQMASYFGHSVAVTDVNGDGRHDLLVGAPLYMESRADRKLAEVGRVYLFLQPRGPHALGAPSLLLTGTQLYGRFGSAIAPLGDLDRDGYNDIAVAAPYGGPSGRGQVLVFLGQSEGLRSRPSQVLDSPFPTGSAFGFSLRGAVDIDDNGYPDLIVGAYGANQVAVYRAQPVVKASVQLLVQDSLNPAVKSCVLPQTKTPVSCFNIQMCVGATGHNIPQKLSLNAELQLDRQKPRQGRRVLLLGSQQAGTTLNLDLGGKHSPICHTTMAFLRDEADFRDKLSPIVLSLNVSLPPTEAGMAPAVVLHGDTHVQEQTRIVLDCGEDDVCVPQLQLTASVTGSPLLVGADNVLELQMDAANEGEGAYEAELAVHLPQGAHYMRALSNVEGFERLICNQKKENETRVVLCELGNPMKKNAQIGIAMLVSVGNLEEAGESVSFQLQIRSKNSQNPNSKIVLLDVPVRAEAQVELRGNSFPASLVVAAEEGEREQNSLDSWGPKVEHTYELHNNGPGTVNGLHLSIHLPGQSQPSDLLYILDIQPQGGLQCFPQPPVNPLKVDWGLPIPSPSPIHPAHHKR
T2 sequence (P08514 891-1039 partner limits assumed): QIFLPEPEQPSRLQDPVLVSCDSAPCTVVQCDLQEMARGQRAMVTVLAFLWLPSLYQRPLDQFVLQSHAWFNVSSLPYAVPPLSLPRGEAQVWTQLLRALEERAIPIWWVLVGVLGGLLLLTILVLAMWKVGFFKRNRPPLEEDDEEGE
T2 sequence (P05106 27-788): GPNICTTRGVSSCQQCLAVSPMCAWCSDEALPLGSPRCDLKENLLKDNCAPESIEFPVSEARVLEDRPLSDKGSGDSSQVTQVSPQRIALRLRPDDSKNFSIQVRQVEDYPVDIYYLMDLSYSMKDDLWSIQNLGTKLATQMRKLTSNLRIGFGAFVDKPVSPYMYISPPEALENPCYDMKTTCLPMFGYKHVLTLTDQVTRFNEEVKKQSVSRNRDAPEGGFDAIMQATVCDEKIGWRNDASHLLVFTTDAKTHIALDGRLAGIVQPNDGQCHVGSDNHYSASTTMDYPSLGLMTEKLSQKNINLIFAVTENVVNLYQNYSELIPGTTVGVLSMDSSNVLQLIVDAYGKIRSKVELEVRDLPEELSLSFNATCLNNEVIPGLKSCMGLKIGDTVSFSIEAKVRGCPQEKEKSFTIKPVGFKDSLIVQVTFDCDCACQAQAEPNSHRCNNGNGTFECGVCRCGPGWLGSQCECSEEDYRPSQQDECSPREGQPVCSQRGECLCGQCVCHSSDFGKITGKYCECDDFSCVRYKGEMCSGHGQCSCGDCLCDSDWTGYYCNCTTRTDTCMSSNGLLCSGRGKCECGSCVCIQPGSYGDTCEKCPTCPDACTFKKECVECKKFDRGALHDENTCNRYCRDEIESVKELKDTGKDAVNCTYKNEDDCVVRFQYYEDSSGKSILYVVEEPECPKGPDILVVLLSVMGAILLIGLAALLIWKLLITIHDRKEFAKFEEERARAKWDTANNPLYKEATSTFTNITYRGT
T3 sequence (P06756 31-889 limits assumed): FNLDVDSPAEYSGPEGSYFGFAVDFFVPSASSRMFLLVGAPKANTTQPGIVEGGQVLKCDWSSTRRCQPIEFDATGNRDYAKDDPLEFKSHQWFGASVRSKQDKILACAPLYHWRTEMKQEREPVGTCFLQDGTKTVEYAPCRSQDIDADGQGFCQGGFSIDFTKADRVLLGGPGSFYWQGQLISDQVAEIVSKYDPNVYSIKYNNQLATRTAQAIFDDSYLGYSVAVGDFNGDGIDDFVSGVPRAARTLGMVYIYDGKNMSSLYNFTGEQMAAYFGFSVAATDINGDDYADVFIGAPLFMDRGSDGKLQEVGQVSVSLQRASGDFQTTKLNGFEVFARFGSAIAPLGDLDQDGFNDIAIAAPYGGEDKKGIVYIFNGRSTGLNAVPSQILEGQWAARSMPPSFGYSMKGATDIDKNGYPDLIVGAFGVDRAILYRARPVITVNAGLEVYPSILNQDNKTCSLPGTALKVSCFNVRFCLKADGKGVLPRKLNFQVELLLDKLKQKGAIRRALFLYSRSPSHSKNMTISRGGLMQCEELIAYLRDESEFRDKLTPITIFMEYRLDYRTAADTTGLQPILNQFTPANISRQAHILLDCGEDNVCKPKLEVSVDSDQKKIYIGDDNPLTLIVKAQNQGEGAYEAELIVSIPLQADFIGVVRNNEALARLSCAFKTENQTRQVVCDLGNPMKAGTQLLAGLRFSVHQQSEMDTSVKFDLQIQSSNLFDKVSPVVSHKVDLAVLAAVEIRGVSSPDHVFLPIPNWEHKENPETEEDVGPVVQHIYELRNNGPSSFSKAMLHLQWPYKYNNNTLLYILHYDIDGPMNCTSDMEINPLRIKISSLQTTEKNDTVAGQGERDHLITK
T3 sequence (P06756 891-1048 partner limits assumed): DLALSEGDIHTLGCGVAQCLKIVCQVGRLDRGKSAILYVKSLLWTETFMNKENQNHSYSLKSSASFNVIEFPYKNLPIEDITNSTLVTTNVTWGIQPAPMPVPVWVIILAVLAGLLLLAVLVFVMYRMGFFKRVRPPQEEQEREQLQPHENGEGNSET
T3 sequence (P05106 27-788): as the sequence (P05106 27-788) above
T1 sequence (P06756 31-889 limits assumed): as the sequence (P06756 31-889 limits assumed) above
T1 sequence (P06756 891-1048 partner limits assumed): as the sequence (P06756 891-1048 partner limits assumed) above
T1 sequence (P18564 22-788): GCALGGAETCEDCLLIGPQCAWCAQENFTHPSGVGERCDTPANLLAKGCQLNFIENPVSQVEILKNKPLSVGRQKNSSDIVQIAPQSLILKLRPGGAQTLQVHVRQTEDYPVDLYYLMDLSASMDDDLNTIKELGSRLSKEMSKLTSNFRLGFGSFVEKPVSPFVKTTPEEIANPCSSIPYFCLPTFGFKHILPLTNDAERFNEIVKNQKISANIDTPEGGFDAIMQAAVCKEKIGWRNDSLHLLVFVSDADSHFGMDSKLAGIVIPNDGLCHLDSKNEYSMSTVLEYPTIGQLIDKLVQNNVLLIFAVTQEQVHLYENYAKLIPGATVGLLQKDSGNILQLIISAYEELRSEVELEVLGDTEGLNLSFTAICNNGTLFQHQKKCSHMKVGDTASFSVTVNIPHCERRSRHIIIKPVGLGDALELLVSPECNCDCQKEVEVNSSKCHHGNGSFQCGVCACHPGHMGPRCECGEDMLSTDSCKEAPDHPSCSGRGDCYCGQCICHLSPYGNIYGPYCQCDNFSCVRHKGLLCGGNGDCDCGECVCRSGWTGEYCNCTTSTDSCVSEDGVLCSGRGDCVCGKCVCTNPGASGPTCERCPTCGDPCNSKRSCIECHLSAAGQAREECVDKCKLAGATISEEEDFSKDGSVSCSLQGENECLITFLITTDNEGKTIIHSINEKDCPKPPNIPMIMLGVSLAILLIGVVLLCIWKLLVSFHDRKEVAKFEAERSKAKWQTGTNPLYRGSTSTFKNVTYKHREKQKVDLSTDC

SMILES | HT-29 β-6 Selectivity* (β6/β3) [1] | SPRA AIIbB3 Selectivity* IIbIIIa/β3 [2] | IC50 [3] [µM]
CC(C)C(C)(CC(=O)O)Cc1nc(CCCc2ccc3c(n2)NCCC3)no1 (stereo not drawn) [Example 46, 3,4-Dimethyl-3-{3-[3-(5,6,7,8-tetrahydro-[1,8]naphthyridin-2-yl)-propyl]-[1,2,4]oxadiazol-5-ylmethyl}-pentanoic acid] | +++ (Selectivity Ratio >100 +++) | +++ (Selectivity Ratio >100 +++) | < 10
CC(CC(=O)O)(Cc1nc(CCCc2ccc3c(n2)NCCC3)no1)c1ccccc1 (stereo not drawn) [Example 47, 3-Methyl-3-phenyl-4-{3-[3-(5,6,7,8-tetrahydro-[1,8]naphthyridin-2-yl)-propyl]-[1,2,4]oxadiazol-5-yl}-butyric acid] | +++ (Selectivity Ratio >100 +++) | +++ (Selectivity Ratio >100 +++) | < 10
O=C(O)CCCc1nc(CCCc2ccc3c(n2)NCCC3)no1 [Example 50, 4-{3-[3-(5,6,7,8-Tetrahydro-[1,8]naphthyridin-2-yl)-propyl]-[1,2,4]oxadiazol-5-yl}-butyric acid] | +++ (Selectivity Ratio >100 +++) | +++ (Selectivity Ratio >100 +++) | < 10
CC(CC(=O)O)(Cc1nc(CCCCNc2ccccn2)no1)c1cccnc1 (stereo not drawn) [Example 57, 3-Methyl-3-pyridin-3-yl-4-{3-[4-(pyridin-2-ylamino)-butyl]-[1,2,4]oxadiazol-5-yl}-butyric acid] | +++ (Selectivity Ratio >100 +++) | +++ (Selectivity Ratio >100 +++) | < 10
CC(C)(CC(=O)O)Cc1nc(CCCCNc2ccccn2)no1 [Example 62, β,β-dimethyl-3-[4-(2-pyridinylamino)butyl]-1,2,4-oxadiazole-5-butanoic acid] | +++ (Selectivity Ratio >100 +++) | +++ (Selectivity Ratio >100 +++) | < 10
CC(CC(=O)O)Cc1nc(CCCCNc2ccccn2)no1.Cl (stereo not drawn) [Example 69, 3-methyl-4-{3-[4-(pyridin-2-ylamino)butyl]-1,2,4-oxadiazol-5-yl}butanoic acid] | +++ (Selectivity Ratio >100 +++) | ++ (Selectivity Ratio of 10-100 ++) | < 10

Results, then the compound that gave them:

HT-29 β-6 Selectivity* (β6/β3) [1] | SPRA AIIbB3 Selectivity* IIbIIIa/β3 [2] | IC50 [3] [µM] | SMILES
+++ (Selectivity Ratio >100 +++) | +++ (Selectivity Ratio >100 +++) | < 10 | CCCC(C)(CC(=O)O)Cc1nc(CCCc2ccc3c(n2)NCCC3)no1 (stereo not drawn) [Example 44, 3-Methyl-3-{3-[3-(5,6,7,8-tetrahydro-[1,8]naphthyridin-2-yl)-propyl]-[1,2,4]oxadiazol-5-ylmethyl}-hexanoic acid]
++ (Selectivity Ratio of 10-100 ++) | ++ (Selectivity Ratio of 10-100 ++) | < 10 | CCC(CC)(CC(=O)O)Cc1nc(CCCc2ccc3c(n2)NCCC3)no1 [Example 45, 3-Ethyl-3-{3-[3-(5,6,7,8-tetrahydro-[1,8]naphthyridin-2-yl)-propyl]-[1,2,4]oxadiazol-5-ylmethyl}-pentanoic acid]
+++ (Selectivity Ratio >100 +++) | +++ (Selectivity Ratio >100 +++) | < 10 | CC(CC(=O)O)(Cc1nc(CCCc2ccc3c(n2)NCCC3)no1)c1cccnc1 (stereo not drawn) [Example 51, 3-Methyl-3-pyridin-3-yl-4-{3-[3-(5,6,7,8-tetrahydro-[1,8]naphthyridin-2-yl)-propyl]-[1,2,4]oxadiazol-5-yl}-butyric acid]
+++ (Selectivity Ratio >100 +++) | +++ (Selectivity Ratio >100 +++) | < 10 | CC(CC(=O)O)Cc1nc(CCCc2ccc3c(n2)NCCC3)no1 (stereo not drawn) [Example 70, 3-methyl-4-{3-[3-(5,6,7,8-tetrahydro-1,8-naphthyridin-2-yl)propyl]-1,2,4-oxadiazol-5-yl}butanoic acid]
